# Measurements reported in patent publication US10160755B2 (Plexxikon Inc., priority 2015, dated 2018).
# Tests used:
# FLT3-ITD = target: T1, FLT3-ITD (Homo sapiens, UniProt P36888); test: FLT3-ITD biochemical kinase assay (AlphaScreen)
# T1 construct: FLT3-ITD; Invitrogen #PV6190
# T1 sequence (P36888 1-993): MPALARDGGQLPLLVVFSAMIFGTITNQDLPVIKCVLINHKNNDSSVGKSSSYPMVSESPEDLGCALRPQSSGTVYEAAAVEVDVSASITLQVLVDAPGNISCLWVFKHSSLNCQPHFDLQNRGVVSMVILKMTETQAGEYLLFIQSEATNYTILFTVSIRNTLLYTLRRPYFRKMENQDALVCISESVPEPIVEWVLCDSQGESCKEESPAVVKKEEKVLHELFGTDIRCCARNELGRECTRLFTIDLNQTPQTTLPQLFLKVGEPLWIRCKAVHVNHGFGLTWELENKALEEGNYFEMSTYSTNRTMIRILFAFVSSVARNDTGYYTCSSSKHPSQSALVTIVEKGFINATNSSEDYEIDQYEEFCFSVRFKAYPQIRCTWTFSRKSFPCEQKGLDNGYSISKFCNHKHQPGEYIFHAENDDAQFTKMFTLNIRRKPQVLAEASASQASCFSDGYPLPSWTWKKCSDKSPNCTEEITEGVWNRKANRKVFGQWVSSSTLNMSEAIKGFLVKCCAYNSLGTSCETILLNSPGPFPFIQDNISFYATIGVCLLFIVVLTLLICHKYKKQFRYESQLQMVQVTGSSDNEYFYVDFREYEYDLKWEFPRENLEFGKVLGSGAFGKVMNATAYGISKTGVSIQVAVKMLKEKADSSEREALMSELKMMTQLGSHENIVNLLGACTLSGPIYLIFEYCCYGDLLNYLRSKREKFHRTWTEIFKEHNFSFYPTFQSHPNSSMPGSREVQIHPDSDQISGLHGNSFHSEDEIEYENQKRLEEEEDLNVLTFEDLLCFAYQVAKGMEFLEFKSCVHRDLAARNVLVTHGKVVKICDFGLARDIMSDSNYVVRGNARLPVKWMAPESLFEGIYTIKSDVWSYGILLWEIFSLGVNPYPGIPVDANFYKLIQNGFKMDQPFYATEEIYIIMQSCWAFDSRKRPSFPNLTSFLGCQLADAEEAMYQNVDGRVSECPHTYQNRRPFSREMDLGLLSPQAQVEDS
# How it was run: (§1)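 IC50 values reflect loss of AlphaScreen proximity signal (excitation 680 nm, emission 580 nm) from tyrosine phosphorylation of a biotinylated poly(Glu4-Tyr) substrate at 30 nM. ATP was 10 μM for the D835Y mutant and 100 μM for ITD. Detection used PY20 acceptor beads.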
# FLT3-D835Y = target: T2, FLT3-D835Y (Homo sapiens, UniProt P36888, D835Y); test: FLT3-D835Y biochemical kinase assay (AlphaScreen)
# T2 construct: purchased Invitrogen PV3967
# T2 sequence (P36888 27-993 D835Y): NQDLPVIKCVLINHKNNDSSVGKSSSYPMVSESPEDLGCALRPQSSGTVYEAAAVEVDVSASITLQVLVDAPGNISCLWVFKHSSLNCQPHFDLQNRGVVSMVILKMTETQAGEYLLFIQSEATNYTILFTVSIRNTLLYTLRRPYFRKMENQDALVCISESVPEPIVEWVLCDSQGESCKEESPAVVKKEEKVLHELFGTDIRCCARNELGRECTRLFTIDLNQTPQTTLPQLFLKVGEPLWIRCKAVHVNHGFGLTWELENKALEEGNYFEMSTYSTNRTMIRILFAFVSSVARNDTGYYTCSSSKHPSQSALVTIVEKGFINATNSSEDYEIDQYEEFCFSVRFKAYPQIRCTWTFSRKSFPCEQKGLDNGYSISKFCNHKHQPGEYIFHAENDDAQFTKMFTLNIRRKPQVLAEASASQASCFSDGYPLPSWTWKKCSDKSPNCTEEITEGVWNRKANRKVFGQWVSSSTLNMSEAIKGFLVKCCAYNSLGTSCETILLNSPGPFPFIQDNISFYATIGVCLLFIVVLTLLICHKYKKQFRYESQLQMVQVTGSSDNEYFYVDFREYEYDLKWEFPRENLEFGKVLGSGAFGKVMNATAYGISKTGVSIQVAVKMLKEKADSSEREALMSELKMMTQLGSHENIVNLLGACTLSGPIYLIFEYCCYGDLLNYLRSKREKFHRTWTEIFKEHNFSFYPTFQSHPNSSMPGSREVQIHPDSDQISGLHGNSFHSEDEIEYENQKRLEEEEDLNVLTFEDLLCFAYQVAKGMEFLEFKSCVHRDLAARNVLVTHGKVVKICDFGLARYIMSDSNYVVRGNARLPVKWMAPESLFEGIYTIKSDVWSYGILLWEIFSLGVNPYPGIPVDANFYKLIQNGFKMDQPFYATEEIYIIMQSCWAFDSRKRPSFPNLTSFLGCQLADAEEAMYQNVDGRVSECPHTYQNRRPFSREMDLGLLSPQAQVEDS
# How it was run: as §1
Structure (SMILES),IC50 (FLT3-ITD) [µM],IC50 (FLT3-D835Y) [µM]
"COc1cnc2[nH]cc(-c3ccc4ncn(Cc5ccc(F)cc5)c4c3)c2c1 [P-110, 1-[(4-fluorophenyl)methyl]-6-(5-methoxy-1H-pyrrolo[2,3-b]pyridin-3-yl)benzimidazole]",0.0001 to 1,0.0001 to 1
"CC(C)(C)n1cnc2ccc(-c3c[nH]c4ncc(-c5ccc(F)c(C#N)c5)nc34)cc21 [P-230, 5-[7-(3-tert-butylbenzimidazol-5-yl)-5H-pyrrolo[2,3-b]pyrazin-2-yl]-2-fluoro-benzonitrile]",0.0001 to 1,0.0001 to 1
"COc1cc(C#Cc2cnc3[nH]cc(-c4ccc5ncn(C6CCCNC6)c5c4)c3c2)ccn1 (stereo not shown) [P-241, 5-[2-(2-methoxy-4-pyridyl)ethynyl]-3-[3-(3-piperidyl)benzimidazol-5-yl]-1H-pyrrolo[2,3-b]pyridine]",0.0001 to 1,0.0001 to 1
"COc1cc(-c2cnc3[nH]cc(-c4ccc5ncn(C6CCCN(C(C)=O)C6)c5c4)c3n2)ccn1 (stereo not shown) [P-260, 1-[3-[6-[2-(2-methoxy-4-pyridyl)-5H-pyrrolo[2,3-b]pyrazin-7-yl]benzimidazol-1-yl]-1-piperidyl]ethanone]",0.0001 to 1,0.0001 to 1
"O=S1(=O)CCCCN1c1cccc(-c2cnc3[nH]cc(-c4ccc5ncn(C6CCCNC6)c5c4)c3c2)c1 (stereo not shown) [P-224, 2-[3-[3-[3-(3-piperidyl)benzimidazol-5-yl]-1H-pyrrolo[2,3-b]pyridin-5-yl]phenyl]thiazinane 1,1-dioxide]",0.0001 to 1,0.0001 to 1
"COc1ncc(-c2cnc3[nH]cc(-c4ccc5ncn(C6CCCNC6)c5c4)c3n2)cn1 (stereo not shown) [P-264, 2-(2-methoxypyrimidin-5-yl)-7-[3-(3-piperidyl)benzimidazol-5-yl]-5H-pyrrolo[2,3-b]pyrazine]",0.0001 to 1,0.0001 to 1
"CC(C)(C)n1cnc2ccc(-c3c[nH]c4ncc(-c5cnn(CC(F)(F)F)c5)nc34)cc21 [P-256, 7-(3-tert-butylbenzimidazol-5-yl)-2-[1-(2,2,2-trifluoroethyl)pyrazol-4-yl]-5H-pyrrolo[2,3-b]pyrazine]",0.0001 to 1,0.0001 to 1
"FC(F)(F)Oc1cccc(C#Cc2cnc3[nH]cc(-c4ccc5ncn(C6CCCNC6)c5c4)c3n2)c1 (stereo not shown) [P-246, 7-[3-(3-piperidyl)benzimidazol-5-yl]-2-[2-[3-(trifluoromethoxy)phenyl]ethynyl]-5H-pyrrolo[2,3-b]pyrazine]",0.0001 to 1,0.0001 to 1
"O=S(=O)(c1cccc(-c2cnc3[nH]cc(-c4ccc5ncn(C6CCCNC6)c5c4)c3c2)c1)N1CCCC1 (stereo not shown) [P-222, 1-(3-piperidyl)-6-[5-(3-pyrrolidin-1-ylsulfonylphenyl)-1H-pyrrolo[2,3-b]pyridin-3-yl]benzimidazole]",0.0001 to 1,0.0001 to 1
"COc1cnc2[nH]cc(-c3ccc4ncn(-c5cccc(C#N)c5)c4c3)c2c1 [P-135, 3-[6-(5-methoxy-1H-pyrrolo[2,3-b]pyridin-3-yl)benzimidazol-1-yl]benzonitrile]",0.0001 to 1,0.0001 to 1
"C#Cc1cnc2[nH]cc(-c3ccc4ncn(C(C)(C)C)c4c3)c2c1 [P-244, 1-tert-butyl-6-(5-ethynyl-1H-pyrrolo[2,3-b]pyridin-3-yl)benzimidazole]",0.0001 to 1,0.0001 to 1
"FC(F)(F)Cn1cc(-c2cnc3[nH]cc(-c4ccc5ncn(C6CCCNC6)c5c4)c3n2)cn1 (stereo not shown) [P-258, 7-[3-(3-piperidyl)benzimidazol-5-yl]-2-[1-(2,2,2-trifluoroethyl)pyrazol-4-yl]-5H-pyrrolo[2,3-b]pyrazine]",0.0001 to 1,0.0001 to 1
"COc1cnc2[nH]cc(-c3ccc4ncn(-c5ccc(F)c(C)c5)c4c3)c2c1 [P-129, 1-(4-fluoro-3-methyl-phenyl)-6-(5-methoxy-1H-pyrrolo[2,3-b]pyridin-3-yl)benzimidazole]",0.0001 to 1,0.0001 to 1
"COc1cnc2[nH]cc(-c3ccc4ncn(-c5ccc(Cl)cc5)c4c3)c2c1 [P-104, 1-(4-chlorophenyl)-6-(5-methoxy-1H-pyrrolo[2,3-b]pyridin-3-yl)benzimidazole]",0.0001 to 1,0.0001 to 1
"COc1cc(C(=O)Nc2cnc3[nH]cc(-c4ccc5ncn(C(C)(C)C)c5c4)c3c2)ccn1 [P-245, N-[3-(3-tert-butylbenzimidazol-5-yl)-1H-pyrrolo[2,3-b]pyridin-5-yl]-2-methoxy-pyridine-4-carboxamide]",0.0001 to 1,0.0001 to 1
"CCCS(=O)(=O)Nc1cccc(-c2cnc3[nH]cc(-c4ccc5ncn(C6CCCNC6)c5c4)c3c2)c1 (stereo not shown) [P-217, N-[3-[3-[3-(3-piperidyl)benzimidazol-5-yl]-1H-pyrrolo[2,3-b]pyridin-5-yl]phenyl]propane-1-sulfonamide]",0.0001 to 1,0.0001 to 1
"CC(C)S(=O)(=O)Nc1cccc(-c2cnc3[nH]cc(-c4ccc5ncn(C(C)(C)C)c5c4)c3n2)c1 [P-232, N-[3-[7-(3-tert-butylbenzimidazol-5-yl)-5H-pyrrolo[2,3-b]pyrazin-2-yl]phenyl]propane-2-sulfonamide]",0.0001 to 1,0.0001 to 1
"COc1cc(C#Cc2cnc3[nH]cc(-c4ccc5ncn(C(C)(C)C)c5c4)c3c2)ccn1 [P-240, 1-(tert-butyl)-6-(5-((2-methoxypyridin-4-yl)ethynyl)-1H-pyrrolo[2,3-b]pyridin-3-yl)-1H-benzo[d]imidazole]",0.0001 to 1,0.0001 to 1
"O=S(=O)(c1cccc(-c2cnc3[nH]cc(-c4ccc5ncn(C6CCCNC6)c5c4)c3n2)c1)N1CCCC1 (stereo not shown) [P-237, 7-[3-(3-piperidyl)benzimidazol-5-yl]-2-(3-pyrrolidin-1-ylsulfonylphenyl)-5H-pyrrolo[2,3-b]pyrazine]",0.0001 to 1,0.0001 to 1
"O=S1(=O)CCCN1c1cccc(-c2cnc3[nH]cc(-c4ccc5ncn(C6CCCNC6)c5c4)c3n2)c1 (stereo not shown) [P-273, 2-[3-[7-[3-(3-piperidyl)benzimidazol-5-yl]-5H-pyrrolo[2,3-b]pyrazin-2-yl]phenyl]-1,2-thiazolidine 1,1-dioxide]",0.0001 to 1,0.0001 to 1
"CC(C)(C)n1cnc2ccc(-c3c[nH]c4ncc(-c5cccc(N6CCCCS6(=O)=O)c5)nc34)cc21 [P-227, 2-[3-[7-(3-tert-butylbenzimidazol-5-yl)-5H-pyrrolo[2,3-b]pyrazin-2-yl]phenyl]thiazinane 1,1-dioxide]",0.0001 to 1,0.0001 to 1
"COc1cc(-c2cnc3[nH]cc(-c4ccc5ncn(C(C)(C)C)c5c4)c3c2)ccn1 [P-106, 1-tert-butyl-6-[5-(2-methoxy-4-pyridyl)-1H-pyrrolo[2,3-b]pyridin-3-yl]benzimidazole]",0.0001 to 1,0.0001 to 1
"CC(C)(C)n1cnc2ccc(-c3c[nH]c4ncc(-c5cnc(N6CCOCC6)nc5)cc34)cc21 [P-266, 4-[5-[3-(3-tert-butylbenzimidazol-5-yl)-1H-pyrrolo[2,3-b]pyridin-5-yl]pyrimidin-2-yl]morpholine]",0.0001 to 1,0.0001 to 1
